Test results published in patent US20250011311A1, “AMIDO HETEROAROMATIC COMPOUNDS” (AstraZeneca AB, priority 2022, published 2025).

What was measured:
[1] = target: recombinant 17bHSD4 (M1-N311) (Homo sapiens (Human), UniProt P51659); assay: In Vitro 17bHSD4 Enzyme Assay; assay type: biochemical; conditions: 40 nM 17bHSD4, 0.125 mM NAD, 15 μM Estradiol, 1.5 h; NADH fluorescence; read-out: 17HSD17b4 Enzyme assay IC50
[2] = target: over expressed HSD17β13 in HEK293S cells (Homo sapiens (Human), UniProt Q7Z5P4); assay: In Vitro 17bHSD13 Cell Assay; assay type: cell-based; conditions: HEK293S cells over expressing HSD17β13; estradiol to estrone conversion, 18 h, LC-MS/MS; read-out: 17bHSD1713 Cell assay IC50
Outline: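 HEK293S cells overexpressing HSD17β13 convert estradiol to estrone; product read by LC-MS/MS (APCI, positive MRM) as AUC ratio estrone/(estrone+estradiol). Effect normalised between DMSO and maximal inhibition by a known inhibitor control; IC50 from curve fit.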

[3] = test system: human hepatocytes; assay: Assay A: Metabolic Stability in Human Hepatocytes; assay type: in vitro ADME; conditions: cryopreserved human hepatocytes, 10^6 viable cells/mL, 1 μM compound, 37° C.
Outline: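 Cryopreserved hepatocytes (10^6 viable cells/mL) at 37° C with 1 μM test compound, sampled 0.5–120 min and quenched in MeCN. Parent measured by LC-MS/MS; CLint (μL/min/10^6 cells) from the slope of ln(parent concentration) vs time.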

[4] = target: over expressed HSD17β9 in HEK293S cells (Homo sapiens (Human), UniProt Q92781); assay: In Vitro 17bHSD9 Cell Assay; assay type: cell-based; conditions: HEK293S cells over expressing HSD17β9; retinol to retinal conversion, 18 h, LC-MS/MS; read-out: 17bHSD9 Cell assay IC50
Outline: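 HEK293S cells overexpressing HSD17β9 were plated at 10K cells/well in DMEM + 10% FBS and cultured 18 h. Retinol-to-retinal conversion in media was quantified by LC-MS/MS (MRM) as retinal/(retinal + retinol). IC50 was fitted after normalisation to DMSO and full inhibition by a reference inhibitor.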

over expressed HSD17β13 in HEK293S cells, sequence (Q7Z5P4 20-300): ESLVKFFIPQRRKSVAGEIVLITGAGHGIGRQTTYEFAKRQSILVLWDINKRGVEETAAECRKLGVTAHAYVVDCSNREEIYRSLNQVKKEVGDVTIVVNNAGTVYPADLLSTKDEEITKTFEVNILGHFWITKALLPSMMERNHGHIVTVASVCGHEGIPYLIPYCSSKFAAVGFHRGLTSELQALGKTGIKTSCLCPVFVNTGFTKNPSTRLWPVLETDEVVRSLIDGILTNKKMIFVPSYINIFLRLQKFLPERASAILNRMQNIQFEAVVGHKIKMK
recombinant 17bHSD4 (M1-N311), sequence (P51659 1-311): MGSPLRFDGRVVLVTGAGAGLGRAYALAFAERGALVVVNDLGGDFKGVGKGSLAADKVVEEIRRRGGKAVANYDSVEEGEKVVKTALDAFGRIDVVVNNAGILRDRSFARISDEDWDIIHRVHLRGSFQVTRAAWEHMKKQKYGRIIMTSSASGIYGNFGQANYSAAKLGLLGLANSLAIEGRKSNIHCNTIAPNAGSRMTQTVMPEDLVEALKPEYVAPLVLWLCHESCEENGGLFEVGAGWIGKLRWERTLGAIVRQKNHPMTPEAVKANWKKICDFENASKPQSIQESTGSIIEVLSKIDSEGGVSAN
over expressed HSD17β9 in HEK293S cells, sequence (Q92781 whole entry): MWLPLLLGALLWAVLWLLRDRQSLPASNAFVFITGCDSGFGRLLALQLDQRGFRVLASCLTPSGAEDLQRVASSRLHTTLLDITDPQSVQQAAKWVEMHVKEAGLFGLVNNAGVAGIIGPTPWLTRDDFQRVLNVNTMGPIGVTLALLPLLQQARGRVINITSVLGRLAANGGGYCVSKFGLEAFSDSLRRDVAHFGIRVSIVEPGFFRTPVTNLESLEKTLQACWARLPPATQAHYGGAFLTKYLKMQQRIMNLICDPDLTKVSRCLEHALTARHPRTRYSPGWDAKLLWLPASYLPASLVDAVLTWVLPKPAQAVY

Row | IC50 [1] [µM] | IC50 [2] [µM] | IC50 [4] [µM] | SMILES | Assay A: Human Heps Met Clint GMean CLint (μl/min/1E6) [3] [μl/min/1E6]
1 | 11.5 | 1.06 | 30 | N#Cc1ccc2c(c1)CCN(C(=O)c1noc(-c3cc(F)c(F)c(O)c3F)n1)C2 [Example 31, 2-(5-(2,4,5-Trifluoro-3-hydroxyphenyl)-1,2,4-oxadiazole-3-carbonyl)-1,2,3,4-tetrahydroisoquinoline-6-carbonitrile] | 12.6
2 | 8.5 | 0.54 | 21.1 | N#Cc1ccc2c(c1)CN(C(=O)c1noc(-c3cc(F)c(F)c(O)c3F)n1)CC2 [Example 86, 2-(5-(2,4,5-Trifluoro-3-hydroxyphenyl)-1,2,4-oxadiazole-3-carbonyl)-1,2,3,4-tetrahydroisoquinoline-7-carbonitrile] | 12.3
3 | 45.3 | 0.1 | > 50 | O=C(c1noc(-c2cc(F)c(F)c(O)c2F)n1)N1CCO[C@@H]2CCC[C@@H]21 [Example 113, ((4aS,7aR)-Hexahydrocyclopenta[b][1,4]oxazin-4(4aH)-yl)(5-(2,4,5-trifluoro-3-hydroxyphenyl)-1,2,4-oxadiazol-3-yl)methanone] | 7.3

Row | SMILES | IC50 [1] [µM] | IC50 [2] [µM] | IC50 [4] [µM] | Assay A: Human Heps Met Clint GMean CLint (μl/min/1E6) [3] [μl/min/1E6]
4 | O=C(c1noc(-c2cc(F)c(F)c(O)c2F)n1)N1CCOC2(CC2)C1 [Example 118, (4-Oxa-7-azaspiro[2.5]octan-7-yl)(5-(2,4,5-trifluoro-3-hydroxyphenyl)-1,2,4-oxadiazol-3-yl)methanone] | > 50 | 0.22 | > 50 | 4.6
